Assays:
[1] = tested on: cd41:eGFP+ HSCs emerging from flk1:mCherry+ endothelial cells; assay: Time-lapse confocal imaging of cd41:eGFP+ HSCs emerging from flk1:mCherry+ endothelial cells in transgenic embryos; assay type: in vivo, zebrafish; details: 26-42 hpf
Experimental: Mice were purchased Cd45.2 (C57BL6/J) and Cd45.1 (SJL) from The Jackson Laboratory and zebrafish morpholinos from GeneTools. Microangiography was performed by injecting fluorescent-labeled dextran dye in the atrium of zebrafish heart and its passage was recorded using live imaging. Immunostaining of zebrafish heart and mouse AGM were analyzed using an inverted fluorescent microscope. Cardiac tamponade, heart rate, and pulse frequency were analyzed in zebrafish embryos using bright field imaging or time-lapse confocal microscopy. The movement of red blood cells in blood vessels was analyzed as well as the endothelial-to-HSC transition in zebrafish transgenic embryos using time-lapse confocal imaging.
Zebrafish embryos were treated with the following chemical modulators in E3 fish media: 100 uM L-NAME (Fisher Scientific), 50 uM Digitoxigenin (Sigma), 25-50 uM Yoda1 (Cayman Chemical), 1 uM Nanaomycin (Nana; Fisher Scientific), 100 uM Gadolinium chloride (GdCl3; Sigma), 5-10 uM 4α-phorbol 12, 13-didecanaote (4Apdd; Sigma), or GSK205 (10 uM).
cd41: eGFP were crossed with flk1:mCherry zebrafish and flk1:mCherry with lcr:eGFP zebrafish and injected morpholino in their transgenic embryos. Transgenic embryos were mounted in low-melting-point agarose and a spinning-disk confocal microscope was used to perform time-lapse confocal imaging of cd41:eGFP^+ HSCs emerging from flk1^+ endothelium from 30 to 42 hpf. The relative movement of lcr:eGFP^+ red blood cells was analyzed in the context of flk1:mCherry^+ endothelium. We performed image analysis using IMARIS (Bitplane) software.

[2] = tested on: E11.5 AGM-derived HSCs; assay: Serial transplantation of treated E11.5 AGM-derived HSCs into lethally irradiated mice; assay type: in vivo, mouse; details: for multi-lineage reconstitution (myeloid, T-cells, B-cells) in primary transplant / peripheral blood chimerism / engraftment in primary transplant: primary recipients; for multi-lineage reconstitution (myeloid, T-cells, B-cells) in primary transplant: week 16; for peripheral blood chimerism / engraftment in primary transplant: weeks 8-16, three embryo equivalent treated AGM donor cells
Experimental: (§1) Pulsating blood vessels like conditions were stimulated in vitro using FLEXCELL FX-4000 cell stretching bioreactor machine. To analyze roles of pharmacological targets in regulating the endothelial-to-HSC transition, mouse embryo-derived AGM or whole mouse embryo were exposed ex vivo with biomechanical stretching, chemicals, or drugs. Next, hematopoietic colony formation assays were performed by incubating mouse AGM-derived cells in StemCell M3434 media for seven days. Serial transplantation of AGM-derived HSCs in lethally irradiated SJL mice were performed. The stem cell frequency upon biomechanical stretching was analyzed using a limiting dilution assay. To characterize properties of AGM-HSC-derived blood cells in primary transplants, percentage chimerism and reconstitution was measured using FACS, globin transcripts were analyzed using quantitative reverse transcriptase-PCR, myeloperoxidase amount was measured using PICOKINE ELISA kit, TCR-β rearrangement was analyzed using PCR for TCR-β locus, pre-immune IG detection was analyzed using Thermo-Fisher Mouse Ig Isotyping kit, and delayed-type hypersensitivity was analyzed by injecting sheep RBC (Rockland Immunochemicals) in the footpad of pre-sensitized mice.
For primary transplantation, three-embryo equivalents of untreated or treated (cyclic strain or 25 μM Yoda1) AGMs plus splenic helper cells (˜500,000 per mouse) were injected into lethally irradiated (split dose […]) Cd45.1 (SJL) mice by retro-orbital injection. For secondary and tertiary transplants, the bone marrow was isolated (legs, arm, pelvic bone, spine, sternum) from the transplanted mice. The bone marrow was loaded on a FICOLL gradient (HISTOPAQUE-1083 solution, Sigma-Aldrich), and the cells from the buffy coat incubated with biotin-conjugated lineage antibodies and streptavidin microbeads (Miltenyi Biotec). Next, the lineage negative (Lin) cells were separated with MACS LS Columns (Miltenyi Biotec), and the donor Cd45.2 Lin^−Sca1^+-Kit^+ (LSK) cells sorted with a MoFlo Beckman Coulter sorter. Subsequently, the sorted Cd45.2 LSK cells were mixed with Cd45.1 splenic helper cells (˜500,000 per mouse) and transplanted into Cd45.1 irradiated (split dose […]) SJL mice by retro-orbital injection.
AGM cells from explants and ex vivo were stained with Sca1-Pacific-Blue (E13-161.7, Biolegend) and Flk1-APC-Cy7 (Avas 12α1, BD). Blood from transplanted mice was stained with the following antibody cocktail: Cd45.2-Pacific-Blue (104, Biolegend), Cd45.1-FITC (A20, Biolegend), Cd3-PE (145-2C11, Biolegend), Cd8-PE (53-6.7, Biolegend), Mac1-APC (M1/70, Biolegend), Gr1-APC (108412, Biolegend), Cd19-APC-CY7 (6D5, Biolegend), B220-APC-CY7 (RA3-6B2, Biolegend).
Cells from the bone marrow, spleen, thymus, and lymph node from mice transplanted with E11.5 AGM cells were stained with the following antibody panels: Bone marrow LT-HSC: Cd45.2-FITC (104, Biolegend), Ter119-Biotin (TER-119 BD), Gr1-Biotin (RB6-8C5, BD), Cd5-Biotin (53-7.3, BD), Cd8a-Biotin (53-6.7, BD), B220-Biotin (RA3-6B2, BD), Streptavidin-Pacific Blue (eBioscience), Sca1-PE-CY7 (D7, eBioscience), cKit-APC (2B8, eBioscience), Cd48-APC-CY7 (HM48-1, BD), Cd150-PE-CY5 (TC15-12F12.2, Biolegend). Erythroid development RI-RV in bone marrow: Cd45.2-Pacific-Blue (104, Biolegend), Cd45.1-FITC (A20, Biolegend), Ter119-APC (TER-119, Biolegend), Cd71-PE (R17217, eBioscience). Bone marrow granulocytes: Cd45.2-Pacific-Blue (104, Biolegend), Cd45.1-FITC (A20, Biolegend), Gr1-PE, (RB6-8C5, BD); Mac1-APC (M1/70, Biolegend). Spleen, thymus and lymph nodes T Cells: Cd45.2-Pacific-Blue (104, Biolegend), Cd45.1-FITC (A20, Biolegend), Cd8-PE (53-6.7, Biolegend), Cd4-APC (RM4-5, eBioscience). Spleen, thymus and lymph node myeloid and B cells: Cd45.2-Pacific-Blue (104, Biolegend), Cd45.1-FITC (A20, Biolegend), Cd19-APC-CY7 (6D5, Biolegend), Mac1-APC (M1/70, Biolegend). We performed all FACS analyses on a BD Fortessa cytometer. […]

[3] = tested on: bone marrow-derived Cd71+ Ter119+ sorted (donor) erythroid cells; assay: qRT-PCR of globin transcripts in donor erythroid cells of primary transplant; assay type: in vivo, mouse; details: primary transplant of treated E11.5 AGM
Experimental: as §1
FACS was used to sort erythroid precursors (Cd45.2^+, Ter119^+, Cd71^+) from the unlysed bone marrow isolated from AGM-transplanted mice. […]

## Clc1cccc(Cl)c1CSc1nnc(-c2cnccn2)s1 [Yoda1, 2-[5-[[(2,6-Dichlorophenyl)methyl]thio]-1,3,4-thiadiazol-2-yl]-pyrazine]
[1]; control embryos
  HSC formation (endothelial-to-HSC transition): stimulates HSC formation
[1]; sih-MO embryos
  HSC formation (endothelial-to-HSC transition): rescues HSC formation
[2]
  multi-lineage reconstitution (myeloid, T-cells, B-cells) in primary transplant: stimulates the formation of HSCs that reconstitute to the blood
  peripheral blood chimerism / engraftment in primary transplant: stimulates the formation of HSCs
[2]; listed as Piezo1 activator
  multi-lineage reconstitution (myeloid, T-cells, B-cells) in primary transplant: normal multi-lineage reconstitution
  peripheral blood chimerism / engraftment in primary transplant: higher engraftment
[2]; secondary recipients, week 12
  multi-lineage reconstitution in secondary transplant: produces HSCs that can serially reconstitute to the blood
[2]; secondary recipients, weeks 8-12, 2000 sorted Lin-Sca1+c-Kit+ HSPCs
  peripheral blood chimerism in secondary transplant: produces HSCs that have serial engraftment and self-renewal capacities
[2]; vs. control AGM
  amount of Lin-Sca1+c-Kit+Cd48-Cd150+ HSCs in bone marrow of primary recipients: two- to three-times higher amount
[3]
  hemoglobin type (β-major adult, εγ and β-H1 embryonic) expressed in donor erythroid cells: reconstitutes to red cells containing adult hemoglobin
